What was measured:
[1] = test system: Gasterophilus spp.; experiment: Trial 2: modified critical test, efficacy against Gasterophilus spp. in horses; format: in vivo; settings: Trial 2, horses
Description: (§1) The method of evaluating the activity of the formulation was a modified critical test (Lyons et al., 1986) which involved killing the horses 24 hours after treatment.
(§2) Efficacy is the number of worms count dead and removed versus the number of worms count alive and not removed (scolex attached for Anaplocephala perfoliata).
(§3) A trial involving Ivermectin drench (1 ml per 10 kg of body weight equivalent to 0.2 mg of Ivermectin per kg B.W.), praziquantel drench (0.5 to 2 mg of praziquantel per kg of body weight), and formulations in accordance with Examples 6, 7 and 8.
(§4) Seven groups of 6 horses per group were involved in the study. Area of origin of the horses was well known for having internal parasitism problem and specifically tapeworms (Anoplocephala perfoliata) infestation.

[2] = test system: Parascaris equorum; experiment: Trial 1: modified critical test, efficacy against Parascaris equorum in horses; format: in vivo; settings: Trial 1, horses
Description: as §1, §2
(§5) A trial involving abamectin paste (1 ml per 20 kg of body weight equivalent to 0.2 mg of Abamectin per kg B.W.), praziquantel paste (0.1 to 5 mg of Praziquantel per kg of body weight), and formulations in accordance with examples 1,2,3,4 and 5.
(§6) Eleven groups of ten horses per group were involved in the study. Area of origin of the horses was well known for having internal parasitism problem and specifically tapeworms (Anoplocephala perfoliata) infestation.

[3] = test system: Strongylidase; experiment: Trial 2: modified critical test, efficacy against Strongylidase in horses; format: in vivo; settings: Trial 2, horses
Description: as §1, §2, §3, §4

[4] = test system: Anoplocephala perfoliata; experiment: Trial 1: modified critical test, efficacy against Anoplocephala perfoliata in horses; format: in vivo; settings: Trial 1, horses
Description: as §1, §2, §5, §6

[5] = Biodisponibility of praziquantel in horses; format: in vivo; settings: paste formula
[6] = cited from earlier work
[7] = test system: Gasterophilus spp.; experiment: Trial 1: modified critical test, efficacy against Gasterophilus spp. in horses; format: in vivo; settings: Trial 1, horses
Description: as §1, §2, §5, §6

[8] = test system: Anoplocephala perfoliata; experiment: Trial 2: modified critical test, efficacy against Anoplocephala perfoliata in horses; format: in vivo; settings: Trial 2, horses
Description: as §1, §2, §3, §4

[9] = test system: Strongylidase; experiment: Trial 1: modified critical test, efficacy against Strongylidase in horses; format: in vivo; settings: Trial 1, horses
Description: as §1, §2, §5, §6

[10] = test system: Parascaris equorum; experiment: Trial 2: modified critical test, efficacy against Parascaris equorum in horses; format: in vivo; settings: Trial 2, horses
Description: as §1, §2, §3, §4

O=C(C1CCCCC1)N1CC(=O)N2CCc3ccccc3C2C1 (stereo not drawn) [Praziquantel, 2(cyclohexylcarbonyl)-1,2,3,6,7,11b-hexahydro-4H-pyrazino[2,1-a]isoquinolin-4-one]
% Efficacy Gasterophilus spp. ([1]; praziquantel 0.5 mg/kg): 0%
% Efficacy Gasterophilus spp. ([1]; praziquantel 1 mg/kg): 0%
% Efficacy Gasterophilus spp. ([1]; praziquantel 2 mg/kg): 0%
% Efficacy Parascaris equorum ([2]; praziquantel 0.1 mg/kg): 0%
% Efficacy Parascaris equorum ([2]; praziquantel 0.5 mg/kg): 0%
% Efficacy Parascaris equorum ([2]; praziquantel 1 mg/kg): 0%
% Efficacy Parascaris equorum ([2]; praziquantel 2 mg/kg): 0%
% Efficacy Parascaris equorum ([2]; praziquantel 5 mg/kg): 0%
% Efficacy Strongylidase ([3]; praziquantel 0.5 mg/kg): 0%
% Efficacy Strongylidase ([3]; praziquantel 1 mg/kg): 0%
% Efficacy Strongylidase ([3]; praziquantel 2 mg/kg): 0%
% Efficacy Anoplocephala perfoliata ([4]; praziquantel 0.1 mg/kg): 0%
% Efficacy Anoplocephala perfoliata ([4]; praziquantel 0.5 mg/kg): 27%
% Efficacy Anoplocephala perfoliata ([4]; praziquantel 1 mg/kg): 51%
% Efficacy Anoplocephala perfoliata ([4]; praziquantel 2 mg/kg): 71%
% Efficacy Anoplocephala perfoliata ([4]; praziquantel 5 mg/kg): 33%
biodisponibility of praziquantel [5]: better biodisponibility
solubility in water [6]: relatively insoluble
% Efficacy Gasterophilus spp. ([7]; praziquantel 0.1 mg/kg): 0%
% Efficacy Gasterophilus spp. ([7]; praziquantel 0.5 mg/kg): 0%
% Efficacy Gasterophilus spp. ([7]; praziquantel 1 mg/kg): 0%
% Efficacy Gasterophilus spp. ([7]; praziquantel 2 mg/kg): 0%
% Efficacy Gasterophilus spp. ([7]; praziquantel 5 mg/kg): 0%
% Efficacy Anoplocephala perfoliata ([8]; praziquantel 0.5 mg/kg): 21%
% Efficacy Anoplocephala perfoliata ([8]; praziquantel 1 mg/kg): 43%
% Efficacy Anoplocephala perfoliata ([8]; praziquantel 2 mg/kg): 59%
% Efficacy Strongylidase ([9]; praziquantel 0.1 mg/kg): 0%
% Efficacy Strongylidase ([9]; praziquantel 0.5 mg/kg): 0%
% Efficacy Strongylidase ([9]; praziquantel 1 mg/kg): 0%
% Efficacy Strongylidase ([9]; praziquantel 2 mg/kg): 0%
% Efficacy Strongylidase ([9]; praziquantel 5 mg/kg): 0%
% Efficacy Parascaris equorum ([10]; praziquantel 0.5 mg/kg): 0%
% Efficacy Parascaris equorum ([10]; praziquantel 1 mg/kg): 0%
% Efficacy Parascaris equorum ([10]; praziquantel 2 mg/kg): 0%

CC[C@H](C)[C@H]1O[C@]2(CC[C@@H]1C)C[C@@H]1C[C@@H](C/C=C(\C)[C@@H](O[C@H]3C[C@H](OC)[C@@H](O[C@H]4C[C@H](OC)[C@@H](O)[C@H](C)O4)[C@H](C)O3)[C@@H](C)/C=C/C=C3\CO[C@@H]4[C@H](O)C(C)=C[C@@H](C(=O)O1)[C@]34O)O2 [Ivermectin]
% Efficacy Gasterophilus spp. ([1]; ivermectin 0.2 mg/kg): 100%
% Efficacy Strongylidase ([3]; ivermectin 0.2 mg/kg): 100%
% Efficacy Anoplocephala perfoliata ([8]; ivermectin 0.2 mg/kg): 0%
% Efficacy Parascaris equorum ([10]; ivermectin 0.2 mg/kg): 100%

Abamectin
% Efficacy Parascaris equorum ([2]; abamectin 0.2 mg/kg): 100%
% Efficacy Anoplocephala perfoliata ([4]; abamectin 0.2 mg/kg): 0%
% Efficacy Gasterophilus spp. ([7]; abamectin 0.2 mg/kg): 100%
% Efficacy Strongylidase ([9]; abamectin 0.2 mg/kg): 100%
